According to ChEMBL document CHEMBL1126872, “5-HT3 receptor antagonists. 3. Quinoline derivatives which may be effective in the therapy of irritable bowel syndrome” (J Med Chem, 1993):

Tests used:
[1] = target: Serotonin 3 (5-HT3) receptor; assay: Binding affinity towards [3H]quipazine labeled 5-hydroxytryptamine 3 receptor sites in HG108-15; type: protein-complex assay, Cavia porcellus
[2] = tested on: Rattus norvegicus; assay: Effective dose causing reduction of serotonin effect at 5 min administered iv in Bezold-Jarisch reflex test; type: functional
[3] = tested on: Rattus norvegicus; assay: Inhibition of restraint stress induced defecation by oral administration (inhibition at 1 mg/kg)
[4] = tested on: Rattus norvegicus; assay: Inhibitory dose causing inhibition of restraint stress induced defecation by oral administration; type: functional; details: read-out: ID50 (the source's name)
[5] = organism: Rattus norvegicus; assay: Inhibition of wrap-restraint stress-induced colonic propulsion measured by the time required to expel a teflon ball inserted 3 cm into the rat colon; type: functional; details: read-out: ID50 (the source's name)
[6] = organism: Rattus norvegicus; assay: animal or person; type: functional; details: sc, dose mg/kg 1-10, route subcutaneous, read-out: ID50 (the source's name)
Description: Inhibitory dose causing inhibition of increase in 5-HT induced defecation by sc administration 1 to 10 mg/kg

[7] = tested on: Rattus norvegicus; assay: Inhibitory dose causing inhibition of increase in castor oil induced diarrhea by oral administration at 1 ml/rat; type: functional; details: read-out: ID50 (the source's name)
[8] = organism: Rattus norvegicus; assay: animal or person; type: functional; details: sc, route subcutaneous, read-out: ID50 (the source's name)
Description: Inhibitory dose causing inhibition of increase in thyrotropin-releasing hormone (TRH) induced defecation by sc administration at 1 mg/kg

[9] = tested on: Rattus norvegicus; assay: Inhibition of restraint stress induced defecation by oral administration (inhibition percent at 1 mg/kg)
[10] = tested on: Rattus norvegicus; assay: Inhibitory dose causing inhibition of increase in 5-HT induced defecation by sc administration at 1 to 10 mg/kg; type: functional; details: dose mg/kg 1-10, route subcutaneous, read-out: ID50 (the source's name)
[11] = tested on: Rattus norvegicus; assay: Inhibitory dose causing inhibition of restraint stress induced defecation by oral administration ((inhibition percent at 1 mg/kg); type: functional; details: read-out: ID50 (the source's name)

| Compound | Ki [1] | ED50 [2] | ED50 [4] | Inhibition % at 1 mg/kg [9] | also measured |
| --- | --- | --- | --- | --- | --- |
| CCCCn1c(=O)c(C(=O)NC2CC3CCC(C2)N3C)c(O)c2cccnc21 (configuration not stated) | 6.4 nM | 290 µg/kg | – | – | Inhibition % at 1 mg/kg [3]: 35% |
| CCCCCCn1c(=O)cc(C(=O)OC2CC3CCC(C2)N3C)c2ccccc21 (configuration not stated) | 1.1 nM | 86 µg/kg | 66 µg/kg | – | – |
| Cn1cc(C(=O)C2CCc3nc[nH]c3C2)c2ccccc21 (configuration not stated) | 0.071 nM | 0.089 µg/kg | 5.2 µg/kg | – | ED50 [5]: 69 µg/kg; ED50 [6]: 13 µg/kg; ED50 [7]: 1100 µg/kg; ED50 [8]: 5.1 µg/kg |
| CCCCn1c(=O)cc(C(=O)NC2CC3CCC(C2)N3C)c2ccccc21 (configuration not stated) | 60 nM | 370 µg/kg | – | 47% | – |
| CCCCn1c(=O)c(C(=O)NC2CC3CCC(C2)N3C)c(O)c2ccccc21 (configuration not stated) | 0.48 nM | 290 µg/kg | – | – | Inhibition % at 1 mg/kg [3]: 61% |
| CCOc1cc(C(=O)OC2CC3CCC(C2)N3C)c2ccccc2n1 (configuration not stated) | 0.88 nM | 70 µg/kg | – | 36% | – |
| CCCn1c(=O)cc(C(=O)NC2CC3CCC(C2)N3C)c2ccccc21 (configuration not stated) | 67 nM | 350 µg/kg | – | 12% | – |
| CCCCOc1cc(C(=O)OC2CC3CCC(C2)N3C)c2ccccc2n1 (configuration not stated) | 0.39 nM | 200 µg/kg | – | 64% | – |
| CCCCCOc1cc(C(=O)OC2CC3CCC(C2)N3C)c2ccccc2n1 (configuration not stated) | 0.86 nM | 1130 µg/kg | 30000 µg/kg | – | – |
| CCCCOc1cc(C(=O)NC2CC3CCC(C2)N3C)c2ccccc2n1 (configuration not stated) | 19 nM | 540 µg/kg | – | 43% | – |
| CCCCCCOc1cc(C(=O)OC2CC3CCC(C2)N3C)c2ccccc2n1 (configuration not stated) | 3.2 nM | 7680 µg/kg | – | 23% | – |
| CCCCn1c(=O)cc(C(=O)OC2CC3CCC(C2)N3C)c2ccccc21 (configuration not stated) | 0.68 nM | 41 µg/kg | 140 µg/kg | – | – |
| CC(C)Cc1cc(C(=O)OC2CC3CCC(C2)N3C)c2ccccc2n1 (configuration not stated) | 0.69 nM | 5.6 µg/kg | – | – | Inhibition % at 1 mg/kg [3]: 28% |
| CCCCCn1c(=O)cc(C(=O)OC2CC3CCC(C2)N3C)c2ccccc21 (configuration not stated) | 0.96 nM | 59 µg/kg | 73 µg/kg | – | – |
| CN1C2CCC1CC(NC(=O)c1cc(=O)n(-c3ccccc3)c3ccccc13)C2 (configuration not stated) | 63 nM | 190 µg/kg | – | 14% | – |
| CC(C)CCn1c(=O)cc(C(=O)OC2CC3CCC(C2)N3C)c2ccccc21 (configuration not stated) | 1.5 nM | 59 µg/kg | 41 µg/kg | – | – |
| Cc1nc2ccccc2c(O)c1C(=O)NC1CC2CCC(C1)N2C (configuration not stated) | 7.2 nM | 15 µg/kg | – | – | Inhibition % at 1 mg/kg [3]: 41% |

| Compound | Ki [1] | ED50 [2] | ED50 [4] | Inhibition % at 1 mg/kg [9] | also measured |
| --- | --- | --- | --- | --- | --- |
| CN1C2CCC1CC(OC(=O)c1cc(=O)n(-c3ccccc3)c3ccccc13)C2 (configuration not stated) | 0.51 nM | 44 µg/kg | – | 59% | – |
| CN1C2CCC1CC(OC(=O)c1cc(=O)n(C)c3ccccc13)C2 (configuration not stated) | 2.6 nM | 180 µg/kg | – | 47% | – |
| CC(C)Oc1cc(C(=O)NC2CC3CCC(C2)N3C)c2ccccc2n1 (configuration not stated) | 53 nM | 1860 µg/kg | 39000 µg/kg | – | – |
| CN1C2CCC1CC(OC(=O)c1cc(-c3ccccc3)nc3ccccc13)C2 (configuration not stated) | 71 nM | 340 µg/kg | – | – | – |
| CCCOc1cc(C(=O)NC2CC3CCC(C2)N3C)c2ccccc2n1 (configuration not stated) | 42 nM | 1540 µg/kg | – | 29% | – |
| Cc1nccn1CC1CCc2c(c3ccccc3n2C)C1=O (configuration not stated) [ONDANSETRON] | – | – | 27 µg/kg | – | ED50 [5]: 1600 µg/kg; ED50 [10]: 530 µg/kg; ED50 [7]: 1400 µg/kg; ED50 [8]: 310 µg/kg |
| CCCn1c(=O)cc(C(=O)OC2CC3CCC(C2)N3C)c2ccccc21 (configuration not stated) | 0.45 nM | 330 µg/kg | 170 µg/kg | – | – |
| CN1C2CCC1CC(NC(=O)c1c(O)c3ccccc3n(-c3ccccc3)c1=O)C2 (configuration not stated) | 1.4 nM | 73 µg/kg | – | – | Inhibition % at 1 mg/kg [3]: 48% |
| COc1cc(C(=O)OC2CC3CCC(C2)N3C)c2ccccc2n1 (configuration not stated) | 0.58 nM | 420 µg/kg | 45000 µg/kg | – | – |
| CN1C2CCC1CC(NC(=O)c1cnc3ccccc3c1O)C2 (configuration not stated) | 1.5 nM | 0.1 µg/kg | 1400 µg/kg | – | ED50 [5]: 1800 µg/kg; ED50 [6]: 690 µg/kg; ED50 [7]: 790 µg/kg; ED50 [8]: 53 µg/kg |
| CCn1c(=O)cc(C(=O)OC2CC3CCC(C2)N3C)c2ccccc21 (configuration not stated) | 1.1 nM | 22 µg/kg | 52 µg/kg | – | – |
| CC(C)n1c(=O)cc(C(=O)OC2CC3CCC(C2)N3C)c2ccccc21 (configuration not stated) | 0.32 nM | 81 µg/kg | 40 µg/kg | – | – |
| CN1C2CCC1CC(OC(=O)c1cnc3ccccc3c1O)C2 (configuration not stated) | 6.1 nM | 1.7 µg/kg | – | – | Inhibition % at 1 mg/kg [3]: 13% |
| CC(C)COc1cc(C(=O)OC2CC3CCC(C2)N3C)c2ccccc2n1 (configuration not stated) | 0.44 nM | 240 µg/kg | – | – | ED50 [11]: 36000 µg/kg |
| CN1C2CCC1CC(OC(=O)c1cc(=O)n(Cc3ccccc3)c3ccccc13)C2 (configuration not stated) | 1.3 nM | 150 µg/kg | – | 22% | – |
| CC(C)Cn1c(=O)cc(C(=O)OC2CC3CCC(C2)N3C)c2ccccc21 (configuration not stated) | 0.47 nM | 33 µg/kg | 13 µg/kg | – | ED50 [5]: 10 µg/kg; ED50 [6]: 18 µg/kg; ED50 [7]: 1400 µg/kg; ED50 [8]: 21 µg/kg |
